1 substance from US11660319B2, “Compositions comprising bacterial strains” (priority 2017, dated 2023) can be followed below.

The subject of experiment [1] is U373 astroglioblastoma cells. Nature of the experiment: ROS generated by TBHP (DCFDA fluorescence). It counts as cell-based, human. As to conditions: 10% bacteria supernatant.
A further experiment concerns histone deacetylase. Nature of the experiment: Histone deacetylase activity in HT-29 cells (fluorometric kit). As to conditions: 10% cell free supernatant, 48 hours. Type of experiment: cell-based. The protocol: Cell free supernatants of stationary phase bacterial cultures were isolated by centrifugation and filtering in a 0.22 uM filter. HT-29 cells were used 3 days' post confluence and stepped down in 1 mL DTS 24 hours prior to commencement of the experiment. The HT-29 cells were challenged with 10% cell free supernatant diluted in DTS and this was left to incubate for 48 hours. […] extraction kit and samples were snap frozen prior to HDAC activity measurement. HDAC activity kit was assessed fluorometrically using the Sigma Aldrich (UK) kit.

For the substance Megasphaera massiliensis [MRx0029], the “generation of ROS” value in experiment [1] is “did not have an effect”. Further, the “levels of histone deacetylase activity” value in the experiment with histone deacetylase is “reduce”.
